Measured values reported in PMC4138103 (PLoS ONE, 2014).
Read-outs that look alike come from different tables or passages of the source.

Legend:
Sprague-Dawley rats [1] = test system: Sprague-Dawley rats; design: method as in Roos et al., 2011; conditions: group mean, ref Roos et al., 2011, cited from earlier work
[2] = test system: Nicotinic receptor subunits α4 and β2; assay: Brain [3H]epibatidin binding in exposed rats; format: in vivo, Rattus norvegicus; conditions: males
Description: The membrane containing pellet was homogenized in 15 volumes of 50 mM Tris-HCl buffer at pH 7.4, incubated at 25°C for 30 min, and centrifuged again at 100 000 g. The pellet from the second centrifugation was dissolved in 4 ml 0.32 M sucrose/g brain (v/w), with a final protein concentration of […] and frozen at −40°C.
Nicotinic receptor subunits α4 and β2 were analyzed as above with the following modifications: 8 µl (0.1 mg protein) of the same membrane preparation was incubated with 415–472 µl buffer (50 mM tris-HCL, pH 7.4), 0.1–1 nM [^3H]epibatidin and 0.1 mM (-)nicotine for measuring unspecific binding, to a final volume of 500 µl. […] The samples were incubated with [^3H]epibatidin for 1 h followed by vacuum filtration and scintillation counting.
Samples were vacuum filtrated trough Whatman glassfiber-filters (type GF/B, 25 mm) and washed 3×3 ml ice-cold incubation buffer. To reduce unspecific binding, the filters where pre-wetted in 1% polyetylenimine for 60 min. The filters were placed into a filtration bucket and coupled to a mechanical vacuum pump. After filtration the bucket was disassembled and the filters transferred into plastic tubes and 4 ml filtercount fluid was added. Radioactive binding was measured as disintegration per minute (DPM1) in a scintillation counter (Tri-Carb 3100TR, Perkin Elmer). The analyses were carried out in duplicates

[3] = cited from earlier work
Sprague-Dawley rats [4] = assay: Histopathology; format: in vivo, Rattus norvegicus; conditions: for Emax: Rattus norvegicus; for Large thyroid follicles (%), CED / Large thyroid follicles (%), CED-L: total dose based; for Adrenal zona fasciculata hypertrophy, CED: semi-quantitative staging; for Pituitary frontal lobe vacuoles or extracellular deposits, incidence: top dose (1700 mg/kg bw)
Description: After fixation, the samples were dehydrated, paraffinized and embedded according to standard sampling and trimming procedures. Sections of 4 µm were stained with hematoxylin and eosin in an automated way. Microscopic observations were done by initial unblinded comparison of control and top dose samples. […] Slide reading for such affected endpoints was refined by blind and/or semi-quantitative scoring.
For immunohistochemistry of TSH and ACTH in the pituitary routine sections were deparaffinized in a graded series of xylol/ethanol. Endogenous peroxidase activity was blocked in a 1/1 methanol/distilled water solution with 1/100 0.3% H2O2 added. […] Subsequent 60 min incubation with purified rabbit polyclonal IgG against rat TSH (Biogenesis), 1/1600 dilution, or against ACTH (Phoenix Pharmaceuticals), 1/1000 dilution, was followed by incubation with a biotinylated anti-rabbit second antibody in the case of TSH (1/200, 30 min; Vector) and avidin-biotin complex (Vector) according to instructions of the manufacturer; both antisera were diluted in the 1% blocking reagent solution, or with a peroxidase conjugated anti-rabbit second antibody (DAKO) in the case of ACTH. Immunostaining was completed with incubation with a standard diaminobenzidine (Sigma) solution for 5 min and counterstaining with hematoxylin (Mayer procedure). Immunostaining was evaluated by comparing the quantity and staining intensity of positive cells between control and high dose samples.
Data were also analyzed using the BMD method, which is based on dose-response modeling of the full data set using a nested family of exponential and Hill models. The analyses were done on data of males and females combined, using sex as a covariate. […] In that case, different Critical Effect Doses (CEDs) and CEDs at the lowest bound of the confidence interval (CED-L) were generated for each sex. If no difference between sexes is detected, a CED and CED-Ls for the combined data is generated. However, this was also done if the curve fits are close, and separate analyses for males and females were then performed manually. CEDs and CED-Ls were calculated at the predefined Critical Effect Size (CES) of 5% (EFSA standard) or 10%.

[5] = total dose 1000 mg/kg bw, group mean
[6] = F, CES 5%, model E4, adipose tissue concentration based
[7] = F, CES 10%, model E4, adipose tissue concentration based

Clc1cc(Cl)c(-c2cc(Cl)c(Cl)c(Cl)c2Cl)cc1Cl [PCB 180, 2,2′,3′,4,4′,5,5′-heptachlorobiphenyl]
Body weight (Sprague-Dawley rats [1]; females, total dose 3 mg/kg bw): 215 g | Body weight (Sprague-Dawley rats [1]; females, total dose 10 mg/kg bw): 210 g | Body weight (Sprague-Dawley rats [1]; females, total dose 30 mg/kg bw): 213 g | Body weight (Sprague-Dawley rats [1]; females, total dose 100 mg/kg bw): 211 g | Body weight (Sprague-Dawley rats [1]; females, total dose 300 mg/kg bw): 212 g | Body weight (Sprague-Dawley rats [1]; females, total dose 1000 mg/kg bw): 213 g | Body weight (Sprague-Dawley rats [1]; females, total dose 1700 mg/kg bw): 208 g | Body weight (Sprague-Dawley rats [1]; males, total dose 3 mg/kg bw): 306 g | Body weight (Sprague-Dawley rats [1]; males, total dose 10 mg/kg bw): 321 g | Body weight (Sprague-Dawley rats [1]; males, total dose 30 mg/kg bw): 324 g | Body weight (Sprague-Dawley rats [1]; males, total dose 100 mg/kg bw): 322 g | Body weight (Sprague-Dawley rats [1]; males, total dose 300 mg/kg bw): 325 g | Body weight (Sprague-Dawley rats [1]; males, total dose 1000 mg/kg bw): 315 g | Body weight (Sprague-Dawley rats [1]; males, total dose 1700 mg/kg bw): 310 g | Specific binding of [3H]epibatidin to high or low affinity sites of nicotinic receptor subunit α4/β2 vs controls ([2]; 1000 mg/kg bw): no significant difference | High affinity nicotinic receptor binding (α4/β2) [2, 5]: 656 DPM1 | Low affinity nicotinic receptor binding (α4/β2) [2, 5]: 1492 DPM1 | Elimination half-life ([3]; adult humans, estimated): 11.5 years | Elimination half-life ([3]; early adolescent children): 9.8 years | CED, Large thyroid follicles (%) (Sprague-Dawley rats [4]; [6]): 105 µg/g lipid | CED-L, Large thyroid follicles (%) (Sprague-Dawley rats [4]; [6]): 52.7 µg/g lipid | CED, Large thyroid follicles (%) (Sprague-Dawley rats [4]; [7]): 218 µg/g lipid | CED-L, Large thyroid follicles (%) (Sprague-Dawley rats [4]; [7]): 110 µg/g lipid | Emax (Sprague-Dawley rats [4]; F, model E4, controls vs high dose according to the fitted model, read-out: Maximum response, Large thyroid follicles (%)): -70.9% | Emax (Sprague-Dawley rats [4]; females, controls vs high dose, fitted model, read-out: Large thyroid follicles (%), Maximum response): -71% | Hyperemia of inner zones of adrenal cortex, CEDL (Sprague-Dawley rats [4]; females): 2526 mg/kg bw | Activation of adrenal zona fasciculata, difference in CED values between genders (Sprague-Dawley rats [4]; females more sensitive, semi-quantitative evaluation): 297 fold | Large thyroid follicles (%), CED (Sprague-Dawley rats [4]; females, CES 5%): 22.6 mg/kg bw | Large thyroid follicles (%), CED-L (Sprague-Dawley rats [4]; females, CES 5%): 11.6 mg/kg bw | Large thyroid follicles (%), CED (Sprague-Dawley rats [4]; females, CES 10%): 131 mg/kg bw | Large thyroid follicles (%), CED-L (Sprague-Dawley rats [4]; females, CES 10%): 81.0 mg/kg bw | Area of large thyroid follicles, CED (Sprague-Dawley rats [4]; females, adipose tissue concentration based): 105 µg/g lipid | Thyroid follicle depletion in females, CED (Fig. 7C) (Sprague-Dawley rats [4]; females, legend says CES 5%): 131 | Thyroid follicle depletion in females, CED-L05 (Fig. 7C) (Sprague-Dawley rats [4]; females, legend says CES 5%): 80.5 | Thyroid follicle depletion in females, CED-L95 (Fig. 7C) (Sprague-Dawley rats [4]; females, legend says CES 5%): 213.3 | Adrenal zona fasciculata hypertrophy, CED (Sprague-Dawley rats [4]; females): 2.0 mg/kg bw | Pituitary frontal lobe vacuoles or extracellular deposits, incidence (Sprague-Dawley rats [4]; females): 2/5 | Adrenal zona fasciculata hypertrophy, CED (Sprague-Dawley rats [4]; males): 594 mg/kg bw | Pituitary frontal lobe vacuoles or extracellular deposits, incidence (Sprague-Dawley rats [4]; males): 4/5
